Test results published in PMC4431178, “Molecular basis of sugar recognition by collectin-K1 and the effects of mutations associated with 3MC syndrome” (BMC Biology, 2015).

Legend:
[1] = target: T1, CL-K1 fragment (Homo sapiens, UniProt Q9BWP8); assay: Ca2+ binding to the CL-K1 fragment measured by intrinsic fluorescence
T1 construct: made in house
Method: (§1) Figure 4 Ca^2+ stabilises the CRDs of CL-K1. A) Fluorescence spectra of the CL-K1 fragment in different buffers. The λex was 280 nm. B) Ca^2+ binding to the CL-K1 fragment measured by fluorescence. […] C) Urea denaturation in the presence and absence of Ca^2+ (2 mM). […] Samples were separated by SDS-PAGE and gels were scanned to determine the amount of CL-K1 remaining. The amount of trypsin was 0.5% (w/w). The intensities of bands corresponding to the neck and CRD and the CRD alone were combined. A sample gel is shown in F). E) Proteolysis of CL-K1 in the presence and absence of Ca^2+. Two fold serial dilutions of trypsin were used at a starting concentration of 2% (w/w). In all experiments data are mean ± error from two separate experiments. CL-K1, collectin-K1; CRD, carbohydrate-recognition domain.
All experiments were carried out using a Fluoromax-4 (Horiba Jobin Yvon, Horiba UK Ltd (Middlesex, UK)) instrument with excitation wavelength at 280 nm, slit widths of 2 nm and emission wavelength range of 300 to 400 nm. The λex was 280 nm. Protein samples (0.5 μM) in 10 mM Tris–HCl, pH 7.4 containing 140 mM NaCl were measured in the presence of 2 mM CaCl2, 1 mM EDTA and 6 M urea.

[2] = target: T2, CL-K1 (Homo sapiens, UniProt Q9BWP8); assay: Proteolysis of CL-K1 by trypsin at increasing Ca2+ concentrations; format: binding; design: made in house; details: trypsin 0.5% (w/w), read-out: apparent KD for calcium
Method: as §1
Target sequence in this assay (Q9BWP8 116-271): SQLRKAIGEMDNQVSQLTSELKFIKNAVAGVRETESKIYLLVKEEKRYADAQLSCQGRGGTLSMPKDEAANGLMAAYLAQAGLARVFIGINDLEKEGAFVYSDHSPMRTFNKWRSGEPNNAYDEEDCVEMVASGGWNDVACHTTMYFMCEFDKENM

[3] = target: T2, CL-K1; assay: Glycan-array screen with fluorophore-labelled CL-K1; format: binding; design: For full-length protein, the cDNA was cloned into the polylinker region of expression vector pED; made in house; host or cells: Chinese hamster ovary cells; details: for relative fluorescence, With Ca^2+ / relative fluorescence, Without Ca^2+: glycan array, ± SE from six replicates; for relative fluorescence, With Ca^2+: CL-K1 200 μg/ml; for relative fluorescence, With Ca^2+ / glycan-array binding by CL-K1: with Ca2+; for relative fluorescence, Without Ca^2+: without Ca2+
Description: To examine binding to individual glycans, fluorophore-labelled CL-K1 was used to probe a broad screen of mammalian carbohydrates using the Core H Glycan array technology facility at The Consortium for Functional Glycomics. […] The relative fluorescence signal provides an accurate indication of the order of affinities. Consistent with the glycoprotein data, the best ligands were all high-mannose oligosaccharides (Figure 2A and Additional file 1), but not all of these were recognised. Mammalian high-mannose structures comprise a Man5 core attached to the protein via two GlcNAc residues, with α1-2 linked sugars at the non-reducing termini (Figure 2C). CL-K1 only recognised those structures containing at least one terminal Man(α1-2)Man epitope. For example, it bound tightly to Man6, Man7, Man8 and Man9 but not to the Man5 core (ligand 310) that comprises only α1-3 and α1-6 linkages. […] This pattern of recognition is different from other collectins, such as MBL and pulmonary-surfactant protein D that typically recognise the terminal sugar alone (mannose, fucose or N-acetyglucosamine). It is also different from other C-type lectins, such as DC-SIGN or DC-SIGNR that target larger high-mannose oligosaccharides preferentially (Man5 to Man9). To quantify the differences in affinities, we compared binding to three different epitopes that all form part of a high-mannose oligosaccharide. […] Thus, CL-K1 primarily recognises the terminal disaccharide of the glycan, rather than the terminal sugar alone, explaining its unusual binding properties.
Labelled protein (70 μL) was applied to the printed surface of the microarray chip coated with natural and synthetic glycans via amino linkers. The chip was covered and incubated at room temperature in a humidified chamber for one hour. Binding was detected by measuring the fluorescence associated with each glycan. Data are the average of six replicates.
Target sequence in this assay (Q9BWP8 26-271): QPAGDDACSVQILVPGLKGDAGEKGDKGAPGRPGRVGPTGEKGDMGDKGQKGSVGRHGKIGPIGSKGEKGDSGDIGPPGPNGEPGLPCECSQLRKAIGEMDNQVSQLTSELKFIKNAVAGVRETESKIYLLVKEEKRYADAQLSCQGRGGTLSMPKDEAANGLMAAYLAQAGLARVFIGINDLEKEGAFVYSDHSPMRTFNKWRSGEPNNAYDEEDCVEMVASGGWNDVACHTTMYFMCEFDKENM

[4] = target: T2, CL-K1; assay: Inhibition of CL-K1 binding to immobilized yeast invertase by high-mannose epitopes; design: For full-length protein, the cDNA was cloned into the polylinker region of expression vector pED; made in house; host or cells: Chinese hamster ovary cells; details: relative to Man(α1-2)Man IC50 of 0.02 mM
Target sequence in this assay (Q9BWP8 26-271): as above

[5] = tested on: yeast invertase; assay: Binding of biotinylated invertase to full length CL-K1 and trimeric fragments; details: plates coated with CL-K1 protein
Description: Figure 6 Characterisation of CL-K1 fragments containing disease-associated mutations. […] The elution positions of conalbumin (75 kDa), ovalbumin (44 kDa) and ribonuclease A (13.7 kDa) are indicated. […] Bottom, None of the three CL-K1 variants interacts with the column, even in the presence of Ca^2+. B) CD spectra of the wild-type CL-K1 fragment and the disease-associated CL-K1 variants. […] Values are the mean ± error from duplicate measurements. Tighter binding of the full-length protein is due to its increased avidity. CL-K1, collectin-K1; EDTA, ethylenediaminetetraacetic acid.
After washing, wells were incubated with 1:2000 dilution of goat peroxidase conjugated anti-biotin antibody (Sigma) and developed with tetramethylbenzidine (Sigma). Absorbance was measured at 450 nm.

[6] = tested on: Chinese hamster ovary cells; assay: Secretion of wild type and variant CL-K1s from mammalian cells (immunoblot of medium); format: cell-based; details: transfected CHO cells, serum-free medium, anti-CL-K1 immunoblot
Description: Figure 5 No secretion of variant CL-K1s containing mutations associated with 3MC syndrome. A) Structure of the CRD of CL-K1 showing the position of mutations associated with 3MC syndrome. Secondary structure features are labelled based on the structure of MBL [38]. Polar interactions are indicated by dotted lines. B) Secretion of wild type and variant CL-K1s from mammalian cells. […] Secreted CL-K1 was detected using rabbit polyclonal anti-CL-K1 antibodies. Purified wild-type CL-K1 (approximately 20 ng) was used as a positive control. CL-K1, collectin-K1; CRD, carbohydrate-recognition domain; MBL, mannan-bindng lectin; 3MC, Carnevale, Mingarelli, Malpuech and Michels.
For full-length protein, the cDNA was cloned into the polylinker region of expression vector pED [29] and protein was produced in Chinese hamster ovary cells and purified by affinity chromatography on mannose-Sepharose columns as described previously for MBL [28, 30]. […] Cells were grown in Power Prime broth (Molecular Dimensions Limited (Newmarket, UK)), induced during mid-log phase with IPTG (1 mM), and harvested after growth at 37°C for an additional 16 hours.

[7] = tested on: complement component C3b; assay: Complement activation: C3b deposition on mannan in lectin-depleted human serum; format: biochemical; details: 1/100 human serum depleted of endogenous lectins
Method: (§2) Figure 1 Glycoprotein binding and complement activation by CL-K1. A) Immunoblot of CL-K1 binding to immobilised mammalian and yeast glycoproteins. B) Surface plasmon resonance of CL-K1 binding to glycoproteins. […] C3b and its breakdown products were detected by absorbance using an anti-human C3c antibody with alkaline phosphatase-conjugated goat anti-rabbit secondary antibody and p-nitrophenyl phosphate as the substrate. Protein concentrations were calculated based on the molecular masses of CL-K1 and MBL trimers (78 kDa in each case). CL-K1, collectin-K1; MBL, mannan-binding lectin.
After incubation at 37°C for one hour and washes with buffer containing 0.5% Tween-20, C3b was detected using rabbit anti-human C3c antibody (Dako UK Ltd (Ely, UK)) with alkaline phosphatase-conjugated goat anti-rabbit secondary antibody (Sigma) and p-nitrophenyl phosphate as the substrate.

[8] = target: T2, CL-K1; assay: Surface plasmon resonance of CL-K1 binding to glycoproteins; design: For full-length protein, the cDNA was cloned into the polylinker region of expression vector pED; made in house; host or cells: Chinese hamster ovary cells; details: glycoprotein starting concentration 200 nM
Method: as §2
Target sequence in this assay (Q9BWP8 26-271): as above
CL-K1 was immobilised on the surface of a GLM sensor chip (Bio-Rad Laboratories Ltd (Hemel Hempstead, UK)) by amine coupling. Binding was measured in 10 mM Tris–HCl, pH 7.4 containing 140 mM NaCl, 2 mM CaCl2 and 0.005% Tween 20 at a flow rate of 25 μl/minute and at 25°C. The protein surface was regenerated in buffer containing 1 M NaCl and 5 mM EDTA.

[9] = target: T2, CL-K1; assay: Immunoblot of CL-K1 binding to immobilised glycoproteins; design: For full-length protein, the cDNA was cloned into the polylinker region of expression vector pED; made in house; host or cells: Chinese hamster ovary cells; details: biotinylated CL-K1 0.06 mg/ml, glycoproteins spotted on nitrocellulose
Method: as §2
Target sequence in this assay (Q9BWP8 26-271): as above
Two-fold serial dilutions of glycoprotein (0.5 μl at a starting concentration of 2 mg/ml) were spotted on to a nitrocellulose membrane and allowed to dry for 30 minutes at room temperature. […] After washing, the membrane was incubated with Streptavidin-ALP conjugate (2ug/ml; Life Technologies Ltd (Paisley, UK)) and developed with BCIP-NBT substrate (Sigma).

T1 sequence (Q9BWP8 116-271): as the sequence (Q9BWP8 116-271) above

Molecule	relative fluorescence, With Ca^2+ [3]	relative fluorescence, Without Ca^2+ [3]	other results
[Ca+2] [Ca^2+]	–	–	Kd ([1]; read-out: KD for Ca2+ by titration): 430 µM; Hill coefficient of Ca2+ binding ([1]; trimeric neck+CRD fragment, intrinsic fluorescence): 2.4; Kd [2]: ~1 mM
OC[C@H]1O[C@H](O)[C@H](O)[C@@H](O)[C@H]1O [compound 6]	294 ± 167	870 ± 157	–
OC[C@H]1O[C@H](O)[C@H](O)[C@@H](O)[C@@H]1O [compound 7]	250 ± 80	952 ± 297	–
OC[C@H]1O[C@H](O)[C@@H](O)[C@@H](O)[C@@H]1O [compound 8]	566 ± 230	1156 ± 233	–
CC1OC(O)C(O)C(O)C1O (stereo not shown) [compound 10]	431 ± 27	1097 ± 138	–
CC1OC(O)C(O)C(O)C1O (stereo not shown) [compound 11]	546 ± 98	1922 ± 358	–
OC[C@H]1O[C@@H](O)[C@H](O)[C@@H](O)[C@H]1O [compound 16]	941 ± 308	4062 ± 774	–
OC[C@H]1O[C@@H](O)[C@H](O)[C@@H](O)[C@@H]1O [compound 17]	831 ± 505	4473 ± 1785	–
OC[C@H]1O[C@@H](O)[C@@H](O)[C@@H](O)[C@@H]1O [compound 18]	99 ± 9	570 ± 170	–
CC(=O)N[C@@H]1[C@@H](O)[C@H](O)[C@@H](CO)O[C@H]1O [compound 20]	170 ± 91	535 ± 116	–
CC(=O)N[C@@H]1[C@@H](O)[C@H](O)[C@@H](CO)O[C@H]1O [compound 21]	499 ± 293	1798 ± 141	–
OCC1OC(OCC2OC(OCC3OC(O)C(O)C(OC4OC(CO)C(O)C(O)C4O)C3O)C(O)C(OC3OC(CO)C(O)C(O)C3O)C2O)C(O)C(O)C1O (stereo not shown) [compound 310]	1000 ± 468	768 ± 303	glycan-array binding by CL-K1 [3]: not
NCCCCCO[C@H]1O[C@H](CO[C@H]2O[C@H](CO[C@H]3O[C@H](CO)[C@@H](O)[C@H](O)[C@@H]3O[C@H]3O[C@H](CO)[C@@H](O)[C@H](O)[C@@H]3O)[C@@H](O)[C@H](O[C@H]3O[C@H](CO)[C@@H](O)[C@H](O)[C@@H]3O[C@H]3O[C@H](CO)[C@@H](O)[C@H](O)[C@@H]3O)[C@@H]2O)[C@@H](O)[C@H](O[C@H]2O[C@H](CO)[C@@H](O)[C@H](O)[C@@H]2O[C@H]2O[C@H](CO)[C@@H](O)[C@H](O)[C@@H]2O[C@H]2O[C@H](CO)[C@@H](O)[C@H](O)[C@@H]2O)[C@@H]1O [ligand 312, Manα1-2Manα1-2Manα1-3(Manα1-2Manα1-6(Manα1-2Manα1-3)Manα1-6)Manα-Sp9]	–	–	glycan-array binding by CL-K1 [3]: bound tightly
OC[C@H]1OC(O)[C@@H](O)[C@@H](O)[C@@H]1O (stereo partly shown) [mannose]	–	–	fold by which inhibition by Man(α1-2)Man is greater than for this ligand [4]: > 300 fold
CL-K1: full-length recombinant human collectin-K1 produced in Chinese hamster ovary cells	–	–	binding to yeast invertase [5]: bound; secretion into medium [6]: secreted; complement activation, fold lower activity than human MBL [7]: 2.5 fold
Invertase: yeast invertase glycoprotein from Sigma-Aldrich	–	–	binding to CL-K1 by surface plasmon resonance [8]: bound tightly; binding of CL-K1 on blot [9]: binding
Mannan	–	–	binding to CL-K1 by surface plasmon resonance [8]: bound tightly; binding of CL-K1 on blot [9]: binding
fetuin: Bovine fetuin from Sigma-Aldrich	–	–	binding of CL-K1 on blot [9]: not
thyroglobulin: Bovine thyroglobulin from GE Healthcare	–	–	binding of CL-K1 on blot [9]: binding
